Here are results for one molecule from PMC12615753, “Glutathione as a taste modulator: molecular mechanisms of interaction with umami and sweet taste receptors” (Food Chemistry: Molecular Sciences, 2025).

One test has as its system CaSR. The settings on record: ref Ohsu et al., 2010; cited from earlier work.
The target of another test is T1, hTAS1R1 D192E/rTAS1R3 (UniProt Q7RTX1+Q923K1, D192E).
T1 construct: The cDNA coding region of rTAS1R3 was synthesized with optimized-codon usage for human expression; expressed in transfected cells; host or cells: HEK293T/17
Put plainly: cell-based. More on the design: species or system human, rat. The source says:
Chimeric Gα proteins, such as Gα16Gust44, Gα16Gi3 or Gα15i2, are widely used in the functional expression of TAS1R receptors ([Backes et al., 2015]; [Suess et al., 2015]; [Toda et al., 2021], [Toda et al., 2013], [Toda et al., 2018]; [Zhang et al., 2008]). Chimeric Gα15i2 (([Toda et al., 2013]), Supplementary data) was generated by replacing the last five residues of the C-terminal tail of rat Gα15i2 (EINLL) (UniProt number G3V6N8; https://www.uniprot.org/uniprot/) with the counterpart sequence from human GNAI2 (DCGLF) (UniProt number P04899-1) and cloning into the pcDNA3.1/Hygro vector (Invitrogen, Thermo Fisher Scientific, Illkirch, France) between the HindIII and NotI restriction sites, resulting in the plasmid pcDNA3.1-Gα15i2. Chimeric Gα16Gust44 construct have already been reported ([Raliou et al., 2011]). Briefly, Gα16Gust44 was generated by replacing the C-terminal of Gα16 with the C-terminal 44 residues of gustducin. As previously described, hTAS1R1 was amplified from human fungiform papillae cDNA and cloned and inserted into pcDNA3 (Invitrogen), generating pcDNA3-TAS1R1-WT (wild-type) ([Raliou et al., 2011]). […]

The target of a further test is hTAS1R3 (Homo sapiens, UniProt Q7RTX0). The settings on record: GSH alone; Fig. 5B.
Another test addresses T2, hTAS1R1 H71L/rTAS1R3 (Homo sapiens, UniProt Q7RTX1, H71L).
T2 construct: expressed in transfected cells; host or cells: HEK293T/17 (ATCC CRL-11268)
T2 sequence (Q7RTX1 21-841 H71L): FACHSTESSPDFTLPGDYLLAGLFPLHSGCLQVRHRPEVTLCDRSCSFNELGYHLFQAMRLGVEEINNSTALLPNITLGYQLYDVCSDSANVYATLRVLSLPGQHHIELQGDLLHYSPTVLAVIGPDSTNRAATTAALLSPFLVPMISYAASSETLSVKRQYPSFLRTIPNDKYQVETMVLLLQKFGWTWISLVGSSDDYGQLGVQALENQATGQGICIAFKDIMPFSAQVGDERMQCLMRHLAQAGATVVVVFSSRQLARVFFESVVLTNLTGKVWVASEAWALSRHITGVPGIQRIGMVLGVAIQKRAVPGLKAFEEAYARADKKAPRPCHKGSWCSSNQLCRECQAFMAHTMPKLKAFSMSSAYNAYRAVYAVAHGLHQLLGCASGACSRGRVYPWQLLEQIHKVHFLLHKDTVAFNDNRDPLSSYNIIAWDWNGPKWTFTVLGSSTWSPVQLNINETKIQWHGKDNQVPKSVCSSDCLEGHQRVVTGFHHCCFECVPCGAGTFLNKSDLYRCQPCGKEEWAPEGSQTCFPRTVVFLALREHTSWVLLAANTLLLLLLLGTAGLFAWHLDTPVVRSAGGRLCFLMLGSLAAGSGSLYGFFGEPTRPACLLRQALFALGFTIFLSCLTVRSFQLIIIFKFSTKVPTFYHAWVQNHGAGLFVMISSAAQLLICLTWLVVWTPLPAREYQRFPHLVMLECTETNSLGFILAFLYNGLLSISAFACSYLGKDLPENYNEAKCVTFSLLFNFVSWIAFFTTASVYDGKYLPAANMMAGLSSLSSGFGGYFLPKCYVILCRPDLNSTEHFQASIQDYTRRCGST
T2 sequence (Q923K1 21-858 partner): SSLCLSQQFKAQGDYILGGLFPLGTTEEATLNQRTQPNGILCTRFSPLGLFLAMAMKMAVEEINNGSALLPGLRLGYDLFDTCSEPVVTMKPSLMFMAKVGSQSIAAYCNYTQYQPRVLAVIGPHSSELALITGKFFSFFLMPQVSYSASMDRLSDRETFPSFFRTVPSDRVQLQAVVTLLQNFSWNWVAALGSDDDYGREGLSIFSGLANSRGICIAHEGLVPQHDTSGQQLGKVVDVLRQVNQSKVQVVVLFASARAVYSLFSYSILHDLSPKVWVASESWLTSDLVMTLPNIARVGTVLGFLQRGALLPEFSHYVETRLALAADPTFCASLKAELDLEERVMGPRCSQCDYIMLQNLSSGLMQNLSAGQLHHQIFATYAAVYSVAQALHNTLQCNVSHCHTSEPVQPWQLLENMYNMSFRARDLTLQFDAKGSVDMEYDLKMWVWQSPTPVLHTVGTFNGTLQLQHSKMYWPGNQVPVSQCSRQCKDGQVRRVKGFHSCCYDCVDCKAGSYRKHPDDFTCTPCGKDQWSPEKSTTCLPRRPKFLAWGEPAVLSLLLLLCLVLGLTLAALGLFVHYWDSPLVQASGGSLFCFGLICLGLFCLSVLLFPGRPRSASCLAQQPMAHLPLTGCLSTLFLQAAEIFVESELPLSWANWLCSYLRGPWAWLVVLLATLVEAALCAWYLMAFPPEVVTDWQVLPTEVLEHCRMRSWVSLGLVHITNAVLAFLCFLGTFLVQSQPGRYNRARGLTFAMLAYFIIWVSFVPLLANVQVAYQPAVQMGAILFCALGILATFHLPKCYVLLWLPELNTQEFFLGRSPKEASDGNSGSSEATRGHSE
Put plainly: Calcium assay, hTAS1R1 mutant co-expressed with rTAS1R3. It is filed as cell-based, rat.

Sequence of hTAS1R3 (Q7RTX0 21-852): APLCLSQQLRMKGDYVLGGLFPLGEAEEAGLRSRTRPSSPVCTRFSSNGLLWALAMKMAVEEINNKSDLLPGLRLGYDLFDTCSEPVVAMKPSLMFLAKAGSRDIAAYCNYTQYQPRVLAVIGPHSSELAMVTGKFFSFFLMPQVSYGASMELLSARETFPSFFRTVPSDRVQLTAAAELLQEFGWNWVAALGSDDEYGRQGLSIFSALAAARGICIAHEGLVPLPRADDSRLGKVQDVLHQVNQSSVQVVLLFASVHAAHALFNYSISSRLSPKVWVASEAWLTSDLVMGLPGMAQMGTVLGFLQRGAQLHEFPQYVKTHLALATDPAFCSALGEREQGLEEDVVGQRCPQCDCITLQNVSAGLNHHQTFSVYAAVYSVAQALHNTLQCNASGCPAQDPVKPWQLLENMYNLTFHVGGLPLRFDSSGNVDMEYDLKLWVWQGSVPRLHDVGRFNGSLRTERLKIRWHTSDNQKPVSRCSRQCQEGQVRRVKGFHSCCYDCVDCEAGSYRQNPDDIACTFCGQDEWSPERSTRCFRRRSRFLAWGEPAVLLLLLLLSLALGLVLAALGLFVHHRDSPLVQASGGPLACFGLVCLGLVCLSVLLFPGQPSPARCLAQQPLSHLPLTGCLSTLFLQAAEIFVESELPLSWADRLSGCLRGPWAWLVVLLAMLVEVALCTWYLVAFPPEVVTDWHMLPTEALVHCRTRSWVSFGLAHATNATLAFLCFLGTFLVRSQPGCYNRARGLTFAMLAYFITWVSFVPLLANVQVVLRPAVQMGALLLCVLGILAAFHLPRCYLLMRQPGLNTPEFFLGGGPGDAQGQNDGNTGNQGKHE
T1 sequence (Q7RTX1 21-841 D192E, one chain of several): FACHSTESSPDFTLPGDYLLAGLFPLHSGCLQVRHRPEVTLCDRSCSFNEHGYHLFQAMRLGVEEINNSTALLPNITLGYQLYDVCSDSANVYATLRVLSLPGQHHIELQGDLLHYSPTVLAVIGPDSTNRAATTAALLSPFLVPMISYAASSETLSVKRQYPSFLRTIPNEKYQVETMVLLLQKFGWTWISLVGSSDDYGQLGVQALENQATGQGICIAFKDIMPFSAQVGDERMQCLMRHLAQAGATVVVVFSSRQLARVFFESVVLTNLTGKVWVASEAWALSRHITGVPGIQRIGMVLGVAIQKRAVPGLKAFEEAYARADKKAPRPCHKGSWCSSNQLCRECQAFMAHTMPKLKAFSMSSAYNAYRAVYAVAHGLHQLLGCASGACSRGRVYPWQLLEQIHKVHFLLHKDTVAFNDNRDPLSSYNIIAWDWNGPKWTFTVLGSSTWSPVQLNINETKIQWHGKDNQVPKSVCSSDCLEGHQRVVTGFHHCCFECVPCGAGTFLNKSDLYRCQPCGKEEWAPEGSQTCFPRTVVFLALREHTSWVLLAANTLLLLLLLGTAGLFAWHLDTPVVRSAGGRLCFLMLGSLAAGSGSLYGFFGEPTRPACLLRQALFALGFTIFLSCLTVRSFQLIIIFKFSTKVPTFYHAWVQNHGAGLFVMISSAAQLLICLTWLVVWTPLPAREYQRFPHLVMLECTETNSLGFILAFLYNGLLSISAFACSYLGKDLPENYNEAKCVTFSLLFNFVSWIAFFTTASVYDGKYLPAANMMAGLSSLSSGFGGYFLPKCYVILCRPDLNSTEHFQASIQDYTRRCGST
Description for hTAS1R3: HEK293T/17 cells (ATCC CRL-11268) were seeded into clear bottom black 96-well plates coated with poly-D-lysine at a density of 32500 cells/well in 100 μL of DMEM containing 4.5 g/L glucose and supplemented with penicillin/streptomycin, 2 mM GlutaMAX and 10 % dialyzed fetal bovine serum. The plates were incubated for 24 h at 37 °C and 7.3 % CO2 in a humidified atmosphere. After incubation, using Fugene® 4 K (0.46 μL/well, Promega, Illkirch, France), the cells were transiently transfected with pcDNA3-hTAS1R1-WT (60 ng/well) or TAS1R1 mutants, pcDNA4-rTAS1R3 (60 ng/well), pcDNA3-Gα15i2 (10 ng/well), and pGP-CMV-GCaMP6s (Addgene #40753; 10 ng/well) as a genetically encoded calcium indicator. […] After 20 s of basal fluorescence calcium measurement, the cells were stimulated via automatic injection of a range of compounds in eight wells, and the signal emission was recorded for an additional 70 s, via a FlexStation 3® fluorometric microplate reader (Molecular Devices, San Jose, CA, USA). […] The emitted fluorescence was measured at a wavelength of 510 nm after excitation at 488 nm. […] For each well, the decrease in the raw fluorescence as the relative fluorescence changed was calculated as ΔF/F0. Replicates were averaged for the wells subjected to the same stimuli, the background signal was subtracted, and the fluorescence changes in mock-transfected cells were subtracted. […]

As to `N[C@@H](CCC(=O)N[C@@H](CS)C(=O)NCC(=O)O)C(=O)O` [GSH, γ-L-glutamyl-L-cysteinyl-glycine], the EC50 (usually the midpoint of the concentration-response curve) with CaSR was 0.71 µM; at hTAS1R1 D192E/rTAS1R3 it was more than 30000 µM; at hTAS1R1 H71L/rTAS1R3, 2270 ± 123 µM. In addition, at hTAS1R3, the “response of transfected cells” value is given as “did not respond”. At hTAS1R1 H71L/rTAS1R3 (H71L), the “response to the agonist alone, vs WT” value is given as “significantly increased the initial amplitude”. In addition, the “Max ∆F/F0” value at hTAS1R1 H71L/rTAS1R3 (H71L, GSH) amounted to 1.24 ± 0.0. Moreover, the “R1 = mutant EC50/WT EC50” value at hTAS1R1 H71L/rTAS1R3 (H71L, GSH) was 0.9.
